Reference: US11680268B2, “Methods for improving CRISPR/Cas-mediated genome-editing” (Editas Medicine, Inc., priority 2014, dated 2023)

Experiments:
HBB locus [1] = assay: Cas9 genome editing at the HBB locus, quantification of repair outcomes (reads); assay type: cell-based
Text: The data is a representation of at least four independent experiments with a minimum of 350 reads per condition.
FIG. 12B is a graph depicting the percentage of modification observed in U2OS cells edited at the HBB locus with D10A Cas9 and 2 gRNAs with or without BRCA2 or Rad51. FF is a negative control.

HBB locus [2] = assay: Repair outcomes at the HBB locus after Cas9 variant cleavage, Sanger sequencing of Topo clones; assay type: cell-based, human; conditions: U2OS cells
Text: The different repair outcomes induced in response to DSBs introduced by different Cas9 variants were examined (FIG. 3). […] Several different DNA repair outcomes including, e.g., indel mutations resulting from non-homologous end-joining, alternative NHEJ, HDR homologous recombination (HR) using the closely related HBD gene as an endogenous template, or homology dependent repair using an exogenous donor sequence were characterized.
For some conditions, 50 pmols of single stranded oligonucleotide donor (ss-ODN) was included. Cells were collected 6 days after electroporation and genomic DNA was extracted. PCR amplification of the HBB locus was performed and subcloned into a Topo Blunt Vector. For each condition in each experiment (more the 4 independent samples) 98 colonies were analyses were sequenced with Sanger sequencing and scored for either insertions, deletions, gene conversion or gene corrections.

HBB locus [3] = assay: Deletion length at the HBB locus after Cas9 variant cleavage; assay type: cell-based, human; conditions: U2OS cells, gRNAs 8 and 15, 6 days after electroporation
Experimental: In this experiment, the deletions occurring in response to different end structures induced by different Cas9 variants were analyzed. […] Cells were collected 6 days after electroporation and genomic DNA was extracted. PCR amplification of the HBB locus was performed and subcloned into a Topo Blunt Vector. For each condition in each experiment (more the 4 independent samples), 98 colonies were analyses were sequenced with Sanger sequencing. Deletions detected by Sanger sequencing were scored for the exact number of nucleotides deleted.

Substance | repair pathway of the double strand breaks generated (HBB locus [1]) | engagement of the 5′ protruding end in HDR (HBB locus [1]; PAM facing in the opposite orientation, presence of a single-stranded oligonucleotide donor template nucleic acid) | efficacy compared to wildtype Cas9 (HBB locus [2]; gRNAs HBB-8 and HBB-15) | predominant repair outcome of the induced DSBs (HBB locus [2]; gRNAs HBB-8 and HBB-15, no exogenous ss-ODN, 6 days after electroporation) | repair using the ss-ODN as a template (HBB locus [2]; gRNAs HBB-8 and HBB-15, with 50 pmols ss-ODN) | size of deletions (HBB locus [3])
D10A Cas9 mutant: Cas9 nickase with D10A mutation; D10A inactivates RuvC, only HNH activity; leaves 5′ protruding ends | predominantly repaired by HR | more prone to be engaged in HDR | – | – | – | –
D10A: Cas9 nickase mutant (RuvC domain catalytic mutant); two gRNAs with PAMs outwards give 5′ protruding arms | – | – | comparable levels of efficacy compared to wildtype Cas9 | predominantly repaired by the gene conversion pathway | most efficient repair | mostly larger in nature
